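A five-concentration, 48-hour dose response in 96-well plates underlies each endpoint, interpolated linearly between surrounding concentrations. GI50 is the concentration that inhibits growth by half. TGI is the concentration that stops growth completely.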
Columns and labels:
Assay in all cases: DTP human tumour cell line panel, 48 h
786-0 renal = tested on: 786-0 renal
A498 renal = tested on: A498 renal
A549 NSCLC = tested on: A549 NSCLC
ACHN renal = tested on: ACHN renal
BT-549 breast = tested on: BT-549 breast
CAKI-1 renal = tested on: CAKI-1 renal
CCRF-CEM leukemia = tested on: CCRF-CEM leukemia
COLO 205 colon = tested on: COLO 205 colon
DU-145 prostate = tested on: DU-145 prostate
HCC-2998 colon = tested on: HCC-2998 colon
HCT-116 colon = tested on: HCT-116 colon
HCT-15 colon = tested on: HCT-15 colon
HL-60(TB) leukemia = tested on: HL-60(TB) leukemia
HOP-62 NSCLC = tested on: HOP-62 NSCLC
HS 578T breast = tested on: HS 578T breast
HT29 colon = tested on: HT29 colon
IGROV1 ovarian = tested on: IGROV1 ovarian
K-562 leukemia = tested on: K-562 leukemia
KM12 colon = tested on: KM12 colon
LOX IMVI melanoma = tested on: LOX IMVI melanoma
M14 melanoma = tested on: M14 melanoma
MALME-3M melanoma = tested on: MALME-3M melanoma
MCF7 breast = tested on: MCF7 breast
MDA-MB-231 breast = tested on: MDA-MB-231 breast
MDA-MB-435 = tested on: MDA-MB-435
MOLT-4 leukemia = tested on: MOLT-4 leukemia
NCI-H226 lung = tested on: NCI-H226 lung
NCI-H23 lung = tested on: NCI-H23 lung
NCI-H460 lung = tested on: NCI-H460 lung
NCI-H522 lung = tested on: NCI-H522 lung
NCI/ADR-RES ovarian = tested on: NCI/ADR-RES ovarian
OVCAR-3 ovarian = tested on: OVCAR-3 ovarian
OVCAR-4 ovarian = tested on: OVCAR-4 ovarian
OVCAR-5 ovarian = tested on: OVCAR-5 ovarian
OVCAR-8 ovarian = tested on: OVCAR-8 ovarian
PC-3 prostate = tested on: PC-3 prostate
RPMI-8226 leukemia = tested on: RPMI-8226 leukemia
RXF 393 renal = tested on: RXF 393 renal
SF-268 CNS = tested on: SF-268 CNS
SF-295 CNS = tested on: SF-295 CNS
SF-539 CNS = tested on: SF-539 CNS
SK-MEL-2 melanoma = tested on: SK-MEL-2 melanoma
SK-MEL-28 melanoma = tested on: SK-MEL-28 melanoma
SK-MEL-5 melanoma = tested on: SK-MEL-5 melanoma
SK-OV-3 ovarian = tested on: SK-OV-3 ovarian
SN12C renal = tested on: SN12C renal
SNB-19 CNS = tested on: SNB-19 CNS
SNB-75 CNS = tested on: SNB-75 CNS
SR leukemia = tested on: SR leukemia
SW-620 colon = tested on: SW-620 colon
T-47D breast = tested on: T-47D breast
U251 CNS = tested on: U251 CNS
UACC-257 melanoma = tested on: UACC-257 melanoma
UACC-62 melanoma = tested on: UACC-62 melanoma
UO-31 renal = tested on: UO-31 renal

Cc1nn(-c2ccccc2)c2c1C1C(=C(c3ccc(Cl)cc3)N2)C(=O)Nc2ccccc21 (stereo not given)
GI50 (786-0 renal): 3.97 µM | TGI (786-0 renal): 31 µM | GI50 (A498 renal): 4.01 µM | TGI (A498 renal): 26.4 µM | GI50 (A549 NSCLC): 3.12 µM | TGI (A549 NSCLC): > 100 µM | GI50 (ACHN renal): 3.51 µM | TGI (ACHN renal): > 100 µM | GI50 (BT-549 breast): 2.81 µM | TGI (BT-549 breast): 9.32 µM | GI50 (CAKI-1 renal): 3.04 µM | TGI (CAKI-1 renal): > 100 µM | GI50 (CCRF-CEM leukemia): 2.66 µM | TGI (CCRF-CEM leukemia): 8.67 µM | GI50 (COLO 205 colon): 2.49 µM | TGI (COLO 205 colon): 5.63 µM | GI50 (DU-145 prostate): 7.01 µM | TGI (DU-145 prostate): > 100 µM | GI50 (HCC-2998 colon): 3.43 µM | TGI (HCC-2998 colon): 10.6 µM | GI50 (HCT-116 colon): 3.55 µM | TGI (HCT-116 colon): 14.4 µM | GI50 (HCT-15 colon): 3 µM | TGI (HCT-15 colon): 18.6 µM | GI50 (HL-60(TB) leukemia): 2.25 µM | TGI (HL-60(TB) leukemia): 5.25 µM | GI50 (HOP-62 NSCLC): 9.88 µM | TGI (HOP-62 NSCLC): > 100 µM | GI50 (HS 578T breast): 8.59 µM | TGI (HS 578T breast): > 100 µM | GI50 (HT29 colon): 2.89 µM | TGI (HT29 colon): 8.61 µM | GI50 (IGROV1 ovarian): 3.82 µM | TGI (IGROV1 ovarian): 60.2 µM | GI50 (K-562 leukemia): 3.33 µM | TGI (K-562 leukemia): 46.7 µM | GI50 (KM12 colon): 3.6 µM | TGI (KM12 colon): 20.8 µM | GI50 (LOX IMVI melanoma): 3.54 µM | TGI (LOX IMVI melanoma): 12 µM | GI50 (M14 melanoma): 3.26 µM | TGI (M14 melanoma): 15.2 µM | GI50 (MALME-3M melanoma): 2.68 µM | TGI (MALME-3M melanoma): 21.2 µM | GI50 (MCF7 breast): 3.16 µM | TGI (MCF7 breast): > 100 µM | GI50 (MDA-MB-231 breast): 2.41 µM | TGI (MDA-MB-231 breast): 8.74 µM | GI50 (MDA-MB-435): 3.26 µM | TGI (MDA-MB-435): 17.2 µM | GI50 (MOLT-4 leukemia): 2.85 µM | TGI (MOLT-4 leukemia): 8.9 µM | GI50 (NCI-H226 lung): 7.34 µM | TGI (NCI-H226 lung): 36 µM | GI50 (NCI-H23 lung): 4.46 µM | TGI (NCI-H23 lung): 47.9 µM | GI50 (NCI-H460 lung): 3.17 µM | TGI (NCI-H460 lung): 10.2 µM | GI50 (NCI-H522 lung): 1.78 µM | TGI (NCI-H522 lung): 3.86 µM | GI50 (NCI/ADR-RES ovarian): 4.32 µM | TGI (NCI/ADR-RES ovarian): > 100 µM | GI50 (OVCAR-3 ovarian): 4.39 µM | TGI (OVCAR-3 ovarian): 20.3 µM | GI50 (OVCAR-4 ovarian): 5.33 µM | TGI (OVCAR-4 ovarian): > 100 µM | GI50 (OVCAR-5 ovarian): 2.27 µM | TGI (OVCAR-5 ovarian): 7.68 µM | GI50 (OVCAR-8 ovarian): 3.26 µM | TGI (OVCAR-8 ovarian): 67 µM | GI50 (PC-3 prostate): 2.65 µM | TGI (PC-3 prostate): 13.1 µM | GI50 (RPMI-8226 leukemia): 2.17 µM | TGI (RPMI-8226 leukemia): 4.77 µM | GI50 (RXF 393 renal): 2.19 µM | TGI (RXF 393 renal): 6.7 µM | GI50 (SF-268 CNS): 5.17 µM | TGI (SF-268 CNS): > 100 µM | GI50 (SF-295 CNS): 2.49 µM | TGI (SF-295 CNS): 7.77 µM | GI50 (SF-539 CNS): 3.15 µM | TGI (SF-539 CNS): 12.9 µM | GI50 (SK-MEL-2 melanoma): 1.87 µM | TGI (SK-MEL-2 melanoma): 4.29 µM | GI50 (SK-MEL-28 melanoma): 4.65 µM | TGI (SK-MEL-28 melanoma): 62.1 µM | GI50 (SK-MEL-5 melanoma): 1.88 µM | TGI (SK-MEL-5 melanoma): 4.31 µM | GI50 (SK-OV-3 ovarian): 6.43 µM | TGI (SK-OV-3 ovarian): > 100 µM | GI50 (SN12C renal): 4.96 µM | TGI (SN12C renal): 32.2 µM | GI50 (SNB-19 CNS): 5.28 µM | TGI (SNB-19 CNS): > 100 µM | GI50 (SNB-75 CNS): 3.9 µM | TGI (SNB-75 CNS): 96.3 µM | GI50 (SR leukemia): 2.15 µM | TGI (SR leukemia): 5.58 µM | GI50 (SW-620 colon): 4.16 µM | TGI (SW-620 colon): > 100 µM | GI50 (T-47D breast): 4.33 µM | TGI (T-47D breast): 38.5 µM | GI50 (U251 CNS): 2.98 µM | TGI (U251 CNS): 12.3 µM | GI50 (UACC-257 melanoma): 4.33 µM | TGI (UACC-257 melanoma): 25.4 µM | GI50 (UACC-62 melanoma): 3.56 µM | TGI (UACC-62 melanoma): 15 µM | GI50 (UO-31 renal): 2.86 µM | TGI (UO-31 renal): 30.3 µM

Source: PubChem BioAssay (NCI)
